Data: BigSolDB 2.1

Nc1nnn[nH]1
solubility (mole fraction)
Settings | 283.15 K | 288.15 K | 293.15 K | 298.15 K | 303.15 K | 308.15 K | 313.15 K | 318.15 K | 323.15 K
in 1,4-dioxane | – | 0.0178 | 0.0217 | 0.0267 | 0.0328 | 0.0393 | 0.0463 | 0.0551 | 0.0652
in DMF | 0.0284 | 0.0326 | 0.038 | 0.0437 | 0.0493 | 0.0559 | 0.0628 | 0.0707 | 0.0795
in NMP | 0.0223 | 0.0265 | 0.0312 | 0.0366 | 0.0432 | 0.0502 | 0.0577 | 0.0657 | 0.0741
in acetone | 0.000749 | 0.000832 | 0.000916 | 0.00102 | 0.00112 | 0.00123 | 0.00135 | 0.00149 | 0.00162
in acetonitrile | 0.000193 | 0.000213 | 0.000235 | 0.000256 | 0.00028 | 0.000304 | 0.000329 | 0.000357 | 0.000385
in ethanol | 0.0008 | 0.000896 | 0.00099 | 0.00109 | 0.00121 | 0.00133 | 0.00145 | 0.0016 | 0.00175
in ethyl acetate | 0.000499 | 0.000572 | 0.000649 | 0.000734 | 0.000834 | 0.000943 | 0.00107 | 0.00122 | 0.00139
in isopropanol | 0.000762 | 0.000853 | 0.000946 | 0.00105 | 0.00116 | 0.00128 | 0.00141 | 0.00154 | 0.00169
in methanol | 0.000615 | 0.000681 | 0.000764 | 0.000858 | 0.000954 | 0.00106 | 0.00118 | 0.00131 | 0.00147
in n-butanol | 0.000455 | 0.00051 | 0.000577 | 0.00066 | 0.000755 | 0.000869 | 0.001 | 0.00115 | 0.00131
in n-propanol | 0.000694 | 0.000773 | 0.000868 | 0.000962 | 0.00106 | 0.00117 | 0.00129 | 0.00142 | 0.00157
in toluene | 0.00135 | 0.00156 | 0.00177 | 0.00201 | 0.00229 | 0.0026 | 0.00295 | 0.00335 | 0.00381
